From US7759345B2, “Antitumoral derivatives of ET-743” (priority 2001, dated 2010)
Where two headings read alike, the source gives them in different places.

How the values were obtained:
A-549 = assay: Inhibition of cells growth by colorimetric assay (SRB), A-549; assay type: cell-based
Protocol: (§1) 2°.—Inhibition of Cells Growth by Colorimetric Assay.
(§2) A colorimetric type of assay, using sulforhodamine B (SRB) reaction has been adapted for a quantitative measurement of cell growth and viability [following the technique described by Philip Skehan, et al. (1990), New colorimetric cytotoxicity assay for anticancer drug screening, J. Natl. Cancer Inst., 82:1107-1112]
(§3) This form of the assay employs 96 well cell culture microplates of 9 mm diameter (Faircloth, 1988; Mosmann, 1983). Most of the cell lines are obtained from American Type Culture Collection (ATCC) derived from different human cancer types.
(§4) Cells are maintained in RPMI 1640 10% FBS, supplemented with 0.1 g/l penicillin and 0.1 g/l streptomycin sulfate and then incubated at 37° C., 5% CO2 and 98% humidity. For the experiments, cells were harvested from subconfluent cultures using trypsin and resuspended in fresh medium before plating.
(§5) Cells are seeded in 96 well microtiter plates, at 5×10^3 cells per well in aliquots of 195 μl medium, and they are allowed to attach to the plate surface by growing in drug free medium for 18 hours. Afterward, samples are added in aliquots of 5 μl in a ranging from 10 to 10^−8 μg/ml, dissolved in DMSO/EtOH/PBS (0.5:0.5:99). After 48 hours exposure, the antitumor effect are measured by the SRB methodology: cells are fixed by adding 50 μl of cold 50% (wt/vol) trichloroacetic acid (TCA) and incubating for 60 minutes at 4° C. Plates are washed with deionized water and dried. One hundred μl of SRB solution (0.4% wt/vol in 1% acetic acid) is added to each microtiter well and incubated for 10 minutes at room temperature. Unbound SRB is removed by washing with 1% acetic acid. Plates are air dried and bound stain is solubilized with Tris buffer. Optical densities are read on a automated spectrophotometric plate reader at a single wavelength of 490 nm.
(§6) The values for mean+/−SD of data from triplicate wells are calculated. Some parameters for cellular responses can be calculated: GI=growth inhibition, TGI=total growth inhibition (cytostatic effect) and LC=cell killing (cytotoxic effect).
(§7) Obtained results may predict the usefulness of a certain drug as a potential cancer treatment. For this technique, compounds which show GI50 values smaller than 10 μg/ml are selected to continue with further studies. GI50's data allow to predict that not only could a drug be cystostatic, but also it could have a potential in terms of tumor reduction.

HT-29 = assay: Inhibition of cells growth by colorimetric assay (SRB), HT-29; assay type: cell-based
Protocol: as §1, §2, §3, §4, §5, §6, §7

[1] = Homo sapiens, A549, 48 h, A-549, SRB, 48 hours exposure, read-out: GI50 A-549
[2] = Homo sapiens, A549, 48 h, read-out: LC50 A-549, A-549, SRB, 48 hours exposure
[3] = Homo sapiens, HT-29, 48 h, HT-29, SRB, 48 hours exposure, read-out: GI50 HT-29
[4] = Homo sapiens, HT-29, 48 h, read-out: LC50 HT-29, HT-29, SRB, 48 hours exposure
[5] = Homo sapiens, A549, 48 h, read-out: A-549 GI50
[6] = Homo sapiens, A549, 48 h, read-out: A-549 LC50, A-549, SRB, 48 hours exposure
[7] = Homo sapiens, HT-29, 48 h, read-out: HT-29 GI50
[8] = Homo sapiens, HT-29, 48 h, read-out: HT-29 LC50, HT-29, SRB, 48 hours exposure
[9] = Homo sapiens, A549, 48 h, A-549, SRB, 48 hours exposure, read-out: A-549 GI50
[10] = Homo sapiens, HT-29, 48 h, HT-29, SRB, 48 hours exposure, read-out: HT-29 GI50

| SMILES | TGI A-549 (A-549; A-549, SRB, 48 hours exposure) | GI50 (A-549; [1]) | LC50 (concentration for 50% cell killing) (A-549; [2]) | TGI HT-29 (HT-29; HT-29, SRB, 48 hours exposure) | GI50 (HT-29; [3]) | LC50 (concentration for 50% cell killing) (HT-29; [4]) | A-549 TGI (A-549; A-549, SRB, 48 hours exposure) | LC50 (concentration for 50% cell killing) (A-549; [6]) | HT-29 TGI (HT-29; HT-29, SRB, 48 hours exposure) | LC50 (concentration for 50% cell killing) (HT-29; [8]) | also measured |
| --- | --- | --- | --- | --- | --- | --- | --- | --- | --- | --- | --- |
| COc1cc2c(cc1OC(=O)C(F)(F)C(F)(F)C(F)(F)F)CCN[C@]21CS[C@@H]2c3c(OC(C)=O)c(C)c4c(c3[C@H](COC1=O)N1C2[C@H]2c3c(cc(C)c(OC)c3O)C[C@@H]([C@@H]1C#N)N2C)OCO4 (stereo partly drawn) [Compound 13] | 3.24E-09 | 1.08 nM | 8.65 nM | 3.24E-10 | 0.324 nM | 10.8 nM |  |  |  |  |  |
| COc1cc2c(cc1OC(=O)c1cc3ccccc3oc1=O)CCN[C@]21CS[C@@H]2c3c(OC(C)=O)c(C)c4c(c3[C@H](COC1=O)N1C2[C@H]2c3c(cc(C)c(OC)c3O)C[C@@H]([C@@H]1C#N)N2C)OCO4 (stereo partly drawn) [Compound 21] | 1.06E-08 | 3.34 nM | 10600 nM | 1.06E-07 | 5.31 nM | 10600 nM |  |  |  |  |  |
| C=COC(=O)Oc1cc2c(cc1OC)[C@@]1(CS[C@@H]3c4c(OC(C)=O)c(C)c5c(c4[C@H](COC1=O)N1C3[C@H]3c4c(cc(C)c(OC)c4O)C[C@@H]([C@@H]1C#N)N3C)OCO5)NCC2 (stereo partly drawn) [Compound 29] | 4.32E-09 | 2.16 nM | 10.8 nM | 2.16E-09 | 2.16 nM | 1080 nM |  |  |  |  |  |
| C=COC(=O)Oc1cc2c(cc1OC)[C@@]1(CS[C@@H]3c4c(OC(C)=O)c(C)c5c(c4[C@H](COC1=O)N1C3[C@H]3c4c(cc(C)c(OC)c4OC(=O)OC=C)C[C@@H]([C@@H]1C#N)N3C)OCO5)NCC2 (stereo partly drawn) [Compound 30] | 5.49E-08 | 32.9 nM | 3290 nM | 8.78E-08 | 87.8 nM | 11000 nM |  |  |  |  |  |
| C=COC(=O)Oc1cc2c(cc1OC)[C@@]1(CS[C@@H]3c4c(OC(C)=O)c(C)c5c(c4[C@H](COC1=O)N1C3[C@H]3c4c(cc(C)c(OC)c4OC(=O)OC=C)C[C@@H]([C@@H]1C#N)N3C)OCO5)N(C(=O)OC=C)CC2 (stereo partly drawn) [Compound 31] | 9.17E-08 | 40.8 nM | 1020 nM | 8.15E-08 | 81.5 nM | 10200 nM |  |  |  |  |  |
| C=COC(=O)Oc1cc2c(cc1OC)[C@@]1(CS[C@@H]3c4c(OC(C)=O)c(C)c5c(c4[C@H](COC1=O)N1C3[C@H]3c4c(cc(C)c(OC)c4O)C[C@@H]([C@@H]1C#N)N3C)OCO5)N(C(=O)OC=C)CC2 (stereo partly drawn) [Compound 32] | 6.59E-09 | 2.2 nM | 11 nM | 6.60E-09 | 1.1 nM | 9.88 nM |  |  |  |  |  |
| C=COC(=O)N1CCc2cc(O)c(OC)cc2[C@@]12CS[C@@H]1c3c(OC(C)=O)c(C)c4c(c3[C@H](COC2=O)N2C1[C@H]1c3c(cc(C)c(OC)c3O)C[C@@H]([C@@H]2C#N)N1C)OCO4 (stereo partly drawn) [Compound 33] | 2.50E-08 | 4.37 nM | 12700 nM | 1.25E-07 | 34.2 nM | 12500 nM |  |  |  |  |  |
| COc1cc2c(cc1OC)[C@@]1(CS[C@@H]3c4c(OC(C)=O)c(C)c5c(c4[C@H](COC1=O)N1C3[C@H]3c4c(cc(C)c(OC)c4O)C[C@@H]([C@@H]1C#N)N3C)OCO5)NCC2 (stereo partly drawn) [Compound 34] | 2.84E-09 | 0.764 nM | 9.06 nM | 1.29E-08 | 0.809 nM | 12700 nM |  |  |  |  |  |
| COc1cc2c(cc1OC)[C@@]1(CS[C@@H]3c4c(OC(C)=O)c(C)c5c(c4[C@H](COC1=O)N1C3[C@H]3c4c(cc(C)c(OC)c4OC)C[C@@H]([C@@H]1C#N)N3C)OCO5)NCC2 (stereo partly drawn) [Compound 35] | 7.22E-08 | 5.68 nM | 2150 nM | 1.25E-08 | 5.41 nM | 12500 nM |  |  |  |  |  |
| COc1cc2c(cc1O)CCN[C@]21CS[C@@H]2c3c(OC(C)=O)c(C)c4c(c3[C@H](COC1=O)N1C2[C@H]2c3c(cc(C)c(OC)c3OC)C[C@@H]([C@@H]1C#N)N2C)OCO4 (stereo partly drawn) [Compound 36] | 1.03E-07 | 6.26 nM | 4140 nM | 2.55E-08 | 5.67 nM | 12700 nM |  |  |  |  |  |
| C=COC(=O)Oc1c(C)c2c(c3c1[C@H]1SC[C@]4(NCCc5cc(OC(=O)OC(C)(C)C)c(OC)cc54)C(=O)OC[C@@H]3N3C1[C@H]1c4c(cc(C)c(OC)c4O)C[C@@H]([C@@H]3C#N)N1C)OCO2 (stereo partly drawn) [Compound 118] |  |  |  |  |  |  | 8.90E-08 | 2220 nM | 7.79E-09 | 11100 nM | GI50 (A-549; [5]): 3.34 nM; GI50 (HT-29; [7]): 7.79 nM |
| COc1cc2c(cc1OC(=O)OC(C)(C)C)CCNC21CSC2c3c(OC(=O)CCCCC4SCC5NC(=O)NC54)c(C)c4c(c3C(COC1=O)N1C(C#N)C3Cc5cc(C)c(OC)c(O)c5C(C21)N3C)OCO4 (stereo not drawn) [Compound 123] |  |  |  |  |  |  | 2.09E-08 |  | 3.14E-09 |  | GI50 (A-549; A-549, SRB, 48 hours exposure, read-out: A-549 GI50): 7.33 nM; LC50 (50% lethal concentration) (A-549; A-549, SRB, 48 hours exposure, read-out: A-549 LC50): 73.3 nM; GI50 (HT-29; HT-29, SRB, 48 hours exposure, read-out: HT-29 GI50): 3.14 nM; CC50 (HT-29; HT-29, SRB, 48 hours exposure, read-out: HT-29 LC50): 31.4 nM |
| COc1cc2c(cc1OC(=O)OC(C)(C)C)CCN[C@]21CS[C@@H]2c3c(OC(=O)[C@H](C)NC(=O)OC(C)(C)C)c(C)c4c(c3[C@H](COC1=O)N1C2[C@H]2c3c(cc(C)c(OC)c3O)C[C@@H]([C@@H]1C#N)N2C)OCO4 (stereo partly drawn) [Compound 125] |  |  |  |  |  |  | 3.00E-09 | 8 nM | 2.00E-10 | 3 nM | GI50 (A-549; [9]): 1 nM; GI50 (HT-29; [10]): 0.2 nM |
| COc1cc2c(cc1O)CCN[C@]21CS[C@@H]2c3c(OC(=O)C(F)(F)C(F)(F)C(F)(F)F)c(C)c4c(c3[C@H](COC1=O)N1C2[C@H]2c3c(cc(C)c(OC)c3O)C[C@@H]([C@@H]1C#N)N2C)OCO4 (stereo partly drawn) [Compound 143] |  |  |  |  |  |  | 4.32E-08 | 108 nM | 1.08E-08 | 10800 nM | GI50 (A-549; [5]): 21.6 nM; GI50 (HT-29; [7]): 10.8 nM |
| COc1cc2c(cc1O)CCN[C@]21CS[C@@H]2c3c(OC(=O)CCCC[C@@H]4SCC5NC(=O)NC54)c(C)c4c(c3[C@H](COC1=O)N1C2[C@H]2c3c(cc(C)c(OC)c3O)C[C@@H]([C@@H]1C#N)N2C)OCO4 (stereo partly drawn) [Compound 147] |  |  |  |  |  |  | 6.84E-08 | 1050 nM | 1.05E-07 | 10500 nM | GI50 (A-549; [9]): 32.6 nM; GI50 (HT-29; [10]): 19.7 nM |
| COc1cc2c(cc1O)CCN[C@]21CS[C@@H]2c3c(OC(=O)CCCC[C@@H]4SCC5NC(=O)NC54)c(C)c4c(c3[C@H](COC1=O)N1C2[C@H]2c3c(cc(C)c(OC)c3OC(=O)CCCCC3SCC5NC(=O)NC53)C[C@@H]([C@@H]1C#N)N2C)OCO4 (stereo partly drawn) [Compound 148] |  |  |  |  |  |  | 5.19E-07 | 2880 nM | 3.32E-07 | 786 nM | GI50 (A-549; [9]): 255 nM; GI50 (HT-29; [10]): 140 nM |
